In patent US11576865B2, “Sustained-release dosage forms of ruxolitinib” (Incyte Corporation, priority 2012, dated 2023):

Assays:
[1] = Open-label study of immediate-release ruxolitinib phosphate tablets in MF patients, pharmacokinetics; assay type: in vivo, human; conditions: dose from 10 mg to 100 mg
Method: This was an open-label study exploring the safety, tolerability, and efficacy of ruxolitinib, administered orally to patients with primary myelofibrosis (PMF) and post polycythemia vera/essential thrombocythemia myelofibrosis (Post-PV/ET MF). The study was comprised of 3 parts: Part 1-dose escalation and expansion, bid dosing, Part 2-alternative dosing schedules (A, B and C), and Part 3-three independent patient groups (Group I, II and III). Eight dose regimens were evaluated in 3 parts. The Part 1 evaluated two dose levels of 25 mg bid and 50 mg bid, Part 2 studied five dose regimens of 10 mg bid, 25 mg bid, 25 mg qd, 50 mg qd and 100 mg qd and Part 3 assessed six dose regimens of 10 mg bid, 15 mg bid, 25 mg bid, 50 mg qd, 100 mg qd and 200 mg qd. A total of 154 subjects were enrolled; 32 subjects enrolled in Part 1, 29 subjects in Part 2 and 93 subjects in Part 3. See Table 4b (qd=once per day; bid=twice per day).
In Part 1, the pharmacokinetic blood samples were collected at pre-dose and 0.5, 1, 1.5, 2, 4, 6 and 9 hours post-dose on Days 1 and 15 of Cycle 1 and at pre-dose on Day 1 of Cycles 2 and 3, using lavender top (K3EDTA) Vacutainer® tubes. […]
Plasma samples were shipped to Incyte Corporation and assayed by a validated, GLP, LC/MS/MS method with a linear range of 1 to 1000 nM and a limit of quantification of 1 nM. […]

[2] = tested on: patients with myelofibrosis (MF); assay: Phase 2 sustained-release clinical trial, haematology and adverse events; conditions: human, in vivo, 16 weeks
Method: A Phase 2 clinical trial was carried out in patients with myelofibrosis (MF). A total of 41 subjects were enrolled, and spleen volume and total symptom scores were obtained at baseline. Tablets of sustained-release formulation SR-2 (see Example 1) were administered to fasted patients. All patients were treated with 25 mg once daily doses for 8 weeks. After 8 weeks, depending upon the clinical response, the investigator was allowed to (a) maintain the same dose of SR-2, (b) increase the dose to 50 mg once daily, (c) increase the dose to alternating doses of 25 mg and 50 mg, dosed once daily, or (d) switch to treatment with the immediate release formulation.
Data relating to mean platelet count and mean hemoglobin levels (Hgb) is presented below in Table 3 together with comparative data from the COMFORT-I study. […] Data is shown as mean±SD.
Data for adverse events relating to anemia, thrombocytopenia, neutropenia, and all Grade 3 or higher adverse events are compared for the sustained-release and COMFORT-I (immediate-release) studies (see Example 3 and Comparative Example A for descriptions of the studies) in Table 6a. Adverse events are graded according to CTCAE criteria which can be found online at ctep.cancer.gov/protocolDevelopment/electronic_applications/ctc.htm or evs.nci.nih.gov/ftp1/CTCAE/CTCAE_4.03_2010-06-14_QuickReference_5×7.pdf. A Grade 3 adverse event generally corresponds to a reaction that is severe or medically significant, but not immediately life-threatening where hospitalization or prolongation of hospitalization is indicated and where the reaction is disabling to the extent of limiting self care. Higher Grades are 4 (life-threatening requiring urgent intervention) and 5 (death). For anemia, Grade 3 corresponds to Hgb<8.0 g/dL; <4.9 mmol/L; <80 g/L, where a transfusion is indicated. For thrombocytopenia (decreased platelet count), Grade 3 corresponds to <50,000-25,000/mm^3; <50.0-25.0×10^9/L. The sustained-release data was evaluated for patients over the course of 16 weeks. Mean duration of exposure to ruxolitinib in the COMFORT-I was approximately 242 days. Typically, the majority of hematologic adverse events occur within the first few months of therapy as observed in the COMFORT-I study.
The sustained-release data was evaluated for patients over the course of 16 weeks. Mean duration of exposure to ruxolitinib in the COMFORT-I study was approximately 242 days. The vast majority of hematologic adverse events occur within the first few months of therapy as observed in the COMFORT-I study. […] Additionally, the severity of the adverse events is lesser in the sustained-release study.

[3] = tested on: patients with intermediate-2 or high risk myelofibrosis; conditions: cited from earlier work
Myelofibrosis patients = conditions: COMFORT-II, 48 weeks (primary end point); cited from earlier work
[4] = cited from earlier work
[5] = tested on: patients with intermediate-2 or high risk myelofibrosis; conditions: cited from earlier work; remark: listed apart in the source
[6] = COMFORT I immediate-release, n 129
[7] = COMFORT I immediate-release, n 139
[8] = COMFORT I immediate-release, n 140
[9] = COMFORT I immediate-release, n 148
[10] = COMFORT I, immediate release, N = 155, maximum severity
[11] = COMFORT I, immediate release, N = 155, treatment-related, maximum severity
[12] = COMFORT I, immediate release, N = 155, treatment-related
[13] = COMFORT I, immediate release, N = 155
[14] = COMFORT I, mean exposure approximately 242 days
[15] = COMFORT-I Study (active), Week 12, mean total daily dose 30.4 mg, mean ± SD

## N#CC[C@H](C1CCCC1)n1cc(-c2ncnc3[nH]ccc23)cn1 [Ruxolitinib, (3R)-3-cyclopentyl-3-[4-(7H-pyrrolo[2,3-d]pyrimidin-4-yl)pyrazol-1-yl]propanenitrile]
[1]
  dose proportionality of mean Cmax and AUC: increased approximately linearly proportional to dose
[2]
  % of Subjects With Any Adverse Events, Any severity: (78.0) %
  % of Subjects with Anaemia, Any severity: (4.9) %
  % of Subjects with Blood and lymphatic system disorders, Any severity: (19.5) %
  % of Subjects with Thrombocytopenia, Any severity: (14.6) %
  Number of Subjects With Any Adverse Events, Any severity: 32
  Number of Subjects With Any Adverse Events, LT (life threatening): 0
  Number of Subjects With Any Adverse Events, Mi (mild): 16
  Number of Subjects With Any Adverse Events, Mo (moderate): 9
  Number of Subjects With Any Adverse Events, Se (severe): 7
  Number of Subjects with Anaemia, Any severity: 2
  Number of Subjects with Anaemia, LT (life threatening): 0
  Number of Subjects with Anaemia, Mi (mild): 0
  Number of Subjects with Anaemia, Mo (moderate): 2
  Number of Subjects with Anaemia, Se (severe): 0
  Number of Subjects with Blood and lymphatic system disorders, Any severity: 8
  Number of Subjects with Blood and lymphatic system disorders, LT (life threatening): 0
  Number of Subjects with Blood and lymphatic system disorders, Mi (mild): 3
  Number of Subjects with Blood and lymphatic system disorders, Mo (moderate): 4
  Number of Subjects with Blood and lymphatic system disorders, Se (severe): 1
  Number of Subjects with Thrombocytopenia, Any severity: 6
  Number of Subjects with Thrombocytopenia, LT (life threatening): 0
  Number of Subjects with Thrombocytopenia, Mi (mild): 3
  Number of Subjects with Thrombocytopenia, Mo (moderate): 2
  Number of Subjects with Thrombocytopenia, Se (severe): 1
[3]; [6]
  Total Symptom Score, Percent Change from Baseline To Week 24, Max: 108.3
  Total Symptom Score, Percent Change from Baseline To Week 24, Mean: −46.1
  Total Symptom Score, Percent Change from Baseline To Week 24, Median: −56.2
  Total Symptom Score, Percent Change from Baseline To Week 24, Min: −100.0
[3]; [7]
  Spleen Volume, Percent Change from Baseline To Week 24, Max: 25.1%
  Spleen Volume, Percent Change from Baseline To Week 24, Mean: −31.6%
  Spleen Volume, Percent Change from Baseline To Week 24, Median: −33.0%
  Spleen Volume, Percent Change from Baseline To Week 24, Min: −75.9%
[3]; [8]
  Total Symptom Score, Percent Change from Baseline To Week 16, Max: 292.5
  Total Symptom Score, Percent Change from Baseline To Week 16, Mean: −40.5
  Total Symptom Score, Percent Change from Baseline To Week 16, Median: −51.1
  Total Symptom Score, Percent Change from Baseline To Week 16, Min: −100.0
[3]; [9]
  Spleen Volume, Percent Change from Baseline To Week 12, Max: 3.8%
  Spleen Volume, Percent Change from Baseline To Week 12, Mean: −32.0%
  Spleen Volume, Percent Change from Baseline To Week 12, Median: −31.7%
  Spleen Volume, Percent Change from Baseline To Week 12, Min: −74.4%
[3]; COMFORT-I, baseline to week 24
  proportion of patients with a reduction of 50% or more in the total symptom score: 45.9%
[3]; COMFORT-I, week 24 (primary end point)
  proportion of patients with a reduction of 35% or more in spleen volume: 41.9%
Myelofibrosis patients
  patients with at least a 35% reduction in spleen volume from baseline: 28%
[4]; human, immediate-release, Shi et al.
  half-life: about 3 hours
[4]; oral
  Bioavailability: 70-80%
[5]; [10]
  Number of Subjects With Any Adverse Events, FT (fatal): 9
  Number of Subjects With Any Adverse Events, LT (life threatening): 9
  Number of Subjects With Any Adverse Events, Mi (mild): 20
  Number of Subjects With Any Adverse Events, Mo (moderate): 58
  Number of Subjects With Any Adverse Events, Se (severe): 55
[5]; [11]
  Number of Subjects with Anaemia, FT (fatal): 0
  Number of Subjects with Anaemia, LT (life threatening): 8
  Number of Subjects with Anaemia, Mi (mild): 4
  Number of Subjects with Anaemia, Mo (moderate): 20
  Number of Subjects with Anaemia, Se (severe): 16
  Number of Subjects with Blood and lymphatic system disorders, FT (fatal): 0
  Number of Subjects with Blood and lymphatic system disorders, LT (life threatening): 10
  Number of Subjects with Blood and lymphatic system disorders, Mi (mild): 20
  Number of Subjects with Blood and lymphatic system disorders, Mo (moderate): 28
  Number of Subjects with Blood and lymphatic system disorders, Se (severe): 27
  Number of Subjects with Thrombocytopenia, FT (fatal): 0
  Number of Subjects with Thrombocytopenia, LT (life threatening): 2
  Number of Subjects with Thrombocytopenia, Mi (mild): 21
  Number of Subjects with Thrombocytopenia, Mo (moderate): 19
  Number of Subjects with Thrombocytopenia, Se (severe): 11
[5]; [12]
  % of Subjects with Anaemia, Any severity: 31.0%
  % of Subjects with Blood and lymphatic system disorders, Any severity: 54.8%
  % of Subjects with Thrombocytopenia, Any severity: 34.2%
  Number of Subjects with Anaemia, Any severity: 48
  Number of Subjects with Blood and lymphatic system disorders, Any severity: 85
  Number of Subjects with Thrombocytopenia, Any severity: 53
[5]; [13]
  % of Subjects With Any Adverse Events, Any severity: 97.4%
  Number of Subjects With Any Adverse Events, Any severity: 151
[5]; [14]
  Percent of Patients with All ≥ Grade 3 Adverse Events: 47.1%
  Percent of Patients with Grade 3 or Higher Anemia: 15.5%
  Percent of Patients with Grade 3 or Higher Neutropenia: 1.3%
  Percent of Patients with Grade 3 or Higher Thrombocytopenia: 8.4%
[5]; [15]
  Mean change from baseline Hgb: -13.2 ± 15.5 g/L
  Mean change from baseline platelet count: −131 ± 143 ×10^9/L
